Measured values from US4230850A, “3-Substituted-4-aminoalkoxy-5,6-condensed ring-2-pyranones” (LIPHA, Lyonnaise Industrielle Pharmaceutique, priority 1976, dated 1980).

Experiments:
[1] = tested on: intraventricular coronary artery; test: rate of flow of the intraventricular coronary artery, electromagnetic flow meter, anaesthetised dog; format: in vivo; details: intravenous, Dipyridamol = 100
Protocol: The rate of flow of the intraventricular coronary artery was measured with an electromagnetic flow meter on the anaesthetised dog.
The different test compounds, administered intravenously, have caused considerable increases in the rate of flow, as reported in Table I below (the standard used for comparison being 2,6-di-[di-(2-hydroxyethyl)amino]-4,8-dipiperidinopyrimido-[5,4-d]-pyrimidine, which has the B.P.C. approved name of "Dipyridamole").

[2] = tested on: citric acid aerosol cough; test: citric acid aerosol test on the guinea pig (anti-tussive); format: in vivo; details: administered in equitoxic dose per os
From the text: The compounds of the invention were compared with codeine.

[3] = tested on: mice placed in a confined atmosphere; test: protection against anoxia: survival time of mice placed in a confined atmosphere; format: in vivo, mouse; details: oral
From the text: As well as the vasodilatory activity, a strong protective action against the effects of anoxia has been found for the compounds of the invention. By way of example, Table VI indicates as a percentage the increase in the survival time caused by oral administration of certain compounds to mice placed in a confined atmosphere.

vertebral rate of flow = vertebral rate of flow in the anaesthetised dog; format: in vivo; details: papaverine = 1
Protocol: Likewise, the vasodilation produced by the compounds of the invention is measured by means of the vertebral rate of flow in the anaesthetised dog.

[4] = tested on: rats made hypertensive by the Goldblatt technique; test: decrease in hypertension in rats made hypertensive by the Goldblatt technique; format: in vivo, rat; details: oral, (HS) or (S) given after value, not defined
Protocol: Anti-hypertensive (hypotensive) activity has been found with the compounds of the invention. With rats made hypertensive by the Goldblatt technique (M. GOLDBLATT, J. LUNCH, R. F. MANZAL and W. W. SUMMERVILLE, J. of Exper. Med. 1934, 59, 347-379), decreases in hypertension were recorded after oral administration of the test compound. By way of example, Table III gives the decreases obtained with some of the compounds.

[5] = tested on: phosphodiesterase of cyclic AMP; test: inhibition of the phosphodiesterase of cyclic AMP in vitro; format: biochemical; design: unit not given beside the values; details: measured in vitro; unit not given
From the text: The compounds of the invention are capable of inhibiting the phosphodiesterase of cyclic AMP (adenosine monophosphate).
Table II gives the inhibition indices (ID50), measured in vitro, for some of the compounds of the invention.

femoral artery = femoral artery rate of flow, electromagnetic flow meter, anaesthetised dog; format: in vivo; details: dog anaesthetised with Pentobarbital, papaverine = 1
From the text: The coefficients given in Table IV are expressed relatively to papaverine, which is given the coefficient 1, for the femoral dilation which it causes under similar conditions.

Cc1ccc2oc(=O)c(-c3ccccc3)c(OCCCN3CCOCC3)c2c1
Coefficient related to Dipyridamol [1]: 100

COc1ccc2c3c1O[C@H]1[C@@H](O)C=C[C@H]4[C@@H](C2)N(C)CC[C@@]341 [Codeine, reference compound]
% inhibition on average of number of coughs [2]: 55%

OCCN(CCO)c1nc(N2CCCCC2)c2nc(N(CCO)CCO)nc(N3CCCCC3)c2n1 [Dipyridamol, 2,6-di-[di-(2-hydroxyethyl)amino]-4,8-dipiperidinopyrimido-[5,4-d]-pyrimidine, reference compound]
Coefficient related to Dipyridamol [1]: 100

O=c1oc2ccccc2c(OCCN2CCOCC2)c1-c1ccccc1 [Example 2, 4-(2'-Morpholinoethoxy)-3-phenyl-coumarin]
Average % increase in survival time [3]: +41%
Coefficient/Papaverine (vertebral rate of flow) (vertebral rate of flow): 2
Coefficient related to Dipyridamol [1]: 150
Decrease in hypertension in mm.Hg., 3 to 5 hours after administration [4]: -34 mm.Hg.

O=c1oc2ccccc2c(OCCN2CCCCC2)c1-c1ccccc1 [Example 3, 4-(2'-Piperidinoethoxy)-3-phenyl-coumarin]
ID50 (inhibition indices) [5]: 150

CN(C)CCCOc1c(-c2ccccc2)c(=O)oc2ccccc12 [Example 4, 4-(3'-Dimethylaminopropoxy)-3-phenyl-coumarin]
Coefficient/Papaverine (femoral dilation) (femoral artery): 60
Coefficient/Papaverine (vertebral rate of flow) (vertebral rate of flow): 6
ID50 (inhibition indices) [5]: 150

CCCCc1c(OCCN2CCOCC2)c2c(OCCN3CCOCC3)cc(OCCN3CCOCC3)cc2oc1=O [Example 5, 3-Butyl-4,5,7-tri(2'-morpholinoethoxy)-coumarin]
Coefficient/Papaverine (vertebral rate of flow) (vertebral rate of flow): 2

O=c1oc2ccccc2c(OCCN2CCOCC2)c1-c1ccc(Br)cc1 [Example 7, 3-(4'-Bromophenyl)-4-(2"-morpholinoethoxy)-coumarin]
Average % increase in survival time [3]: +50%

Cc1c(OCCN2CCOCC2)c2ccccc2oc1=O [Example 9, 3-Methyl-4-(2'-morpholinoethoxy)-coumarin]
Average % increase in survival time [3]: +30%

O=c1oc2ccccc2c(OCCN2CCOCC2)c1-c1ccc(F)cc1 [Example 11, 3-(4'-Fluorophenyl)-4-(2"-morpholinoethoxy)-coumarin]
Average % increase in survival time [3]: +45%

Cc1ccc2oc(=O)c(-c3ccccc3)c(OCCN3CCOCC3)c2c1 [Example 12, 6-Methyl-4-(2'-morpholinoethoxy)-3-phenyl-coumarin]
Coefficient related to Dipyridamol [1]: 150

O=c1oc2c(c(OCCN3CCOCC3)c1-c1ccccc1)CCCC2 [Example 14, 4-(2'-Morpholinoethoxy)-3-phenyl-5,6,7,8-tetrahydro-coumarin]
Average % increase in survival time [3]: +50%

O=c1oc2ccccc2c(OCCCN2CCOCC2)c1-c1ccccc1 [Example 16, 4-(3'-Morpholinopropoxy)-3-phenyl-coumarin]
Coefficient related to Dipyridamol [1]: 250

CC(COc1c(-c2ccccc2)c(=O)oc2ccccc12)CN1CCOCC1 (stereo not drawn) [Example 19, 4-(3'-Morpholino-2'-methylpropoxy)-3-phenyl-coumarin]
Average % increase in survival time [3]: +46%
Coefficient/Papaverine (vertebral rate of flow) (vertebral rate of flow): 3
ID50 (inhibition indices) [5]: 600
Decrease in hypertension in mm.Hg., 3 to 5 hours after administration [4]: -18 mm.Hg.

COc1ccc2c(OCCN3CCOCC3)c(-c3ccccc3)c(=O)oc2c1 [Example 20, 7-Methoxy-4-(2'-morpholinoethoxy)-3-phenyl-coumarin]
Coefficient/Papaverine (femoral dilation) (femoral artery): 12

COc1cccc2c(OCCN3CCOCC3)c(-c3ccccc3)c(=O)oc12 [Example 21, 8-Methoxy-4-(2'-morpholinoethoxy)-3-phenyl-coumarin]
Coefficient/Papaverine (femoral dilation) (femoral artery): 13
Coefficient/Papaverine (vertebral rate of flow) (vertebral rate of flow): 5

O=c1oc2cccc(OCCN3CCOCC3)c2c(OCCN2CCOCC2)c1-c1ccccc1 [Example 23, Bis-4,5-(2'-morpholinoethoxy)-3-phenyl-coumarin]
Coefficient/Papaverine (femoral dilation) (femoral artery): 6
Coefficient/Papaverine (vertebral rate of flow) (vertebral rate of flow): 4.5
Coefficient related to Dipyridamol [1]: 300

CN1CCN(CCCOc2c(-c3ccccc3)c(=O)oc3ccccc23)CC1 [Example 27, 4-[3-(4"-Methyl-1"-piperazinyl)-propoxy]-3-phenyl-coumarin]
Coefficient/Papaverine (vertebral rate of flow) (vertebral rate of flow): 3

O=c1oc2cccc(O)c2c(OCCN2CCOCC2)c1-c1ccccc1 [Example 30, 4-(2'-Morpholinoethoxy)-5-hydroxy-3-phenyl-coumarin]
Average % increase in survival time [3]: +65%
% inhibition on average of number of coughs [2]: 47%

O=c1oc2c(O)cccc2c(OCCN2CCOCC2)c1-c1ccccc1 [Example 35, 8-Hydroxy-4-(2'-morpholinoethoxy)-3-phenyl-coumarin]
Coefficient/Papaverine (femoral dilation) (femoral artery): 8
Coefficient/Papaverine (vertebral rate of flow) (vertebral rate of flow): 10
Decrease in hypertension in mm.Hg., 3 to 5 hours after administration [4]: -44 mm.Hg.

O=c1oc2ccccc2c(OCC(O)CN2CCCCC2)c1-c1ccccc1 (stereo not drawn) [Example 37, 4-(3'-Piperidino-2'-hydroxypropoxy)-3-phenyl-coumarin]
Coefficient/Papaverine (femoral dilation) (femoral artery): 12
Coefficient/Papaverine (vertebral rate of flow) (vertebral rate of flow): 9

O=c1oc2c(c(OCCN3CCOCC3)c1-c1ccccc1)CCc1ccccc1-2 [Example 44, 4-(2'-Morpholinoethoxy)-3-phenyl-5,6-dihydro-[h]-benzocoumarin]
% inhibition on average of number of coughs [2]: 48%

O=c1oc2c(c(OCCN3CCOCC3)c1-c1ccccc1)-c1ccccc1C2c1ccccc1 (stereo not drawn) [Example 45, 4-(2'-Morpholinoethoxy)-3,9-diphenyl-[2-1-b]-indeno-[2H]-pyran-2-one]
Coefficient/Papaverine (femoral dilation) (femoral artery): 60
Decrease in hypertension in mm.Hg., 3 to 5 hours after administration [4]: -49 mm.Hg.

CC(COc1c2c(oc(=O)c1-c1ccccc1)CCCC2)CN1CCOCC1 (stereo not drawn) [Example 46, 4-(3'-Morpholino-2'-methylpropoxy)-3-phenyl-5,6,7,8-tetrahydrocoumarin]
Average % increase in survival time [3]: +40%
ID50 (inhibition indices) [5]: 600

O=c1oc2c(c(OCCCN3CCOCC3)c1-c1ccccc1)CCCC2 [Example 47, 4-(3'-Morpholinopropoxy)-3-phenyl-5,6,7,8-tetrahydrocoumarin]
ID50 (inhibition indices) [5]: 200

CC(COc1c2c(oc(=O)c1-c1ccccc1)CCCCCC2)CN1CCOCC1 (stereo not drawn) [Example 51, 4-(3'-Morpholino-2'-methylpropoxy)-3-phenyl[1-2-b]-cyclooctano-(2H)-pyran-2-one]
% inhibition on average of number of coughs [2]: 60%

COc1ccc(Cc2nccc3cc(OC)c(OC)cc23)cc1OC [Papaverine, reference compound]
Coefficient/Papaverine (femoral dilation) (femoral artery): 1
Coefficient/Papaverine (vertebral rate of flow) (vertebral rate of flow): 1

O=c1oc2c(c(OCCN3CCOCC3)c1-c1ccccc1)CCCC2 [drawing 27]
Coefficient/Papaverine (femoral dilation) (femoral artery): 12

O=c1oc2c(c(OCCN3CCOCC3)c1-c1ccccc1)CCCC2 [drawing 39]
Coefficient/Papaverine (vertebral rate of flow) (vertebral rate of flow): 5.5

O=c1oc2c(c(OCCN3CCOCC3)c1-c1ccccc1)CCCC2 [drawing 49]
% inhibition on average of number of coughs [2]: 85%
